Measured values from paper PMC4650734, “FV-162 is a novel, orally bioavailable, irreversible proteasome inhibitor with improved pharmacokinetics displaying preclinical efficacy with continuous daily dosing” (Cell Death & Disease, 2015).

Key:
CT-L proteasome activity = CT-L proteasome activity in RBCs of treated mice; type: in vivo, mouse; details: by 24 h after treatment, murine RBCs, data not shown
Experimental: Cells were harvested by centrifugation at 1200 r.p.m. at room temperature. Cell pellets were washed with PBS and lysed with assay lysis buffer (50 mM HEPES (2-[4-(2-hydroxyethyl) piperazin-1-yl]ethanesulfonic acid)), pH 7.5; 150 mM NaCl; 1% Triton X-100; 2 mM ATP). Cell lysates were incubated on ice for 30 min, mixed by vortex every 5 min, and centrifuged at 12 000 × g for 10 min. Supernatants were transferred to a 96-well plate in triplicate. For each assay, 10 μg of total protein were incubated for 1 h at 37 °C with increasing concentrations (0.001–10 μM) of test compound or vehicle control diluted in assay buffer (50 mM Tris-HCl (tris(hydroxymethyl)aminomethane-HCl), pH 7.5; 150 mM NaCl). After incubation, a specific fluorogenic proteasome substrate was added to each assay reaction (40 μM in a total volume of 100 μl). N-Succinyl-Leu-Leu-Val-Tyr-7-amino-4-methylcoumarin (Suc-Leu-Leu-Val-Tyr-AMC) was used for measuring CT-L activity, t-butoxycarbonyl- Leu-Arg-Arg-7-amino-4-methylcoumarin (Boc-Leu-Arg-Arg-AMC) for T-L activity, and benzyloxycarbonyl-L-leucyl-L-leucyl-L-glutamyl-7-amino-4-methylcoumarin (Z-Leu-Leu-Glu-AMC) for C-L activity. The excitation wavelength was 360 nm and the fluorescence emission of free AMC released during the enzymatic reaction was detected at 460 nm on a SpectraMax M5 fluorescent spectrophotometric plate reader (Molecular Devices, Sunnyvale, CA, USA). AMC release rate was measured at 37 °C in a kinetic mode, recording every 5 min for 30 min.
Five-to-six-week-old male NOD/SCID mice were administered vehicle (5% DMSO, 20% Cremophor) or proteasome inhibitors either intravenously or by oral gavage (3 mice per group), and 20–50 μl of venous blood were collected from each mouse over 24 h. Blood samples were mixed with heparin (APP Pharmaceuticals; Schaumburg, IL, USA) in 0.5-ml tubes in accordance with the manufacturer's instructions. After centrifugal separation at 3000 × g for 10 min, RBCs in the bottom layer were transferred into a new tube and stored at −70 °C until use. RBCs were lysed with assay lysis buffer and incubated on ice for 30 min, mixing by vortex every 5 min, and centrifuged at 12 000 × g for 10 min. Supernatants were transferred to a 96-well plate and proteasome activity was measured as described in 'Cell lysates' section.

[1] = Metabolic stability assay with pooled mouse liver microsomes; type: in vitro ADME; details: 5 μM compound, 15 min, 0.5 mg/ml pooled mouse liver microsomes, LC/MS
Experimental: Pooled liver microsomes isolated from male CD-1 mice were purchased from BD Biosciences (San Jose, CA, USA). Metabolic stability was calculated by measuring the percentage of 5 μM of each test compound remaining after 15 min incubation with 0.5 mg/ml liver microsomes at 37 °C. Compounds were detected by LC/MS using a Xevo quadrupole time-of-flight mass spectrometer and an ACQUITY ultra-performance LC (UPLC) system (Waters Inc., Milford, MA, USA) to determine relative peak areas of each parent compound.

rats = details: cited from earlier work
[2] = test system: patients with multiple myeloma; details: infusion over 30 min; cited from earlier work

SMILES	proteasome activity recovered, of baseline levels (CT-L proteasome activity) [%]	percentage of parent compound remaining [1] [%]	rats for which dose was lethal (rats; 8 mg/kg, bolus infusion, rats) [%]	toxicity of 30 min infusion (rats; rat, in vivo)	dose tolerated without adverse effects [2]
CC(C)C[C@H](NC(=O)[C@H](Cc1ccccc1)NC(=O)c1cnccn1)B(O)O [bortezomib, reference compound]	> 50	–	–	–	–
CC(C)C[C@H](NC(=O)[C@H](CCc1ccccc1)NC(=O)CN1CCOCC1)C(=O)N[C@@H](Cc1ccccc1)C(=O)N[C@@H](CC(C)C)C(=O)[C@@]1(C)CO1 [carfilzomib]	–	70	44	not toxic	up to 56 mg/m^2
